Results from patent US20180353462A1, “[…] AGENTS […] FLAVONOID DERIVATIVES TARGETING KINASES, SIRTUINS AND ONCOGENIC AGENTS FOR THE TREATMENT OF CANCERS” (priority 2015, published 2018).

Columns and labels:
EPHB6 = molecular target: T1, EPHB6 (Homo sapiens, UniProt O15197); test: Kinase competition binding assay, EPHB6; settings: Table 1 kinase panel
T1 construct: made in house
T1 sequence (O15197 32-1021): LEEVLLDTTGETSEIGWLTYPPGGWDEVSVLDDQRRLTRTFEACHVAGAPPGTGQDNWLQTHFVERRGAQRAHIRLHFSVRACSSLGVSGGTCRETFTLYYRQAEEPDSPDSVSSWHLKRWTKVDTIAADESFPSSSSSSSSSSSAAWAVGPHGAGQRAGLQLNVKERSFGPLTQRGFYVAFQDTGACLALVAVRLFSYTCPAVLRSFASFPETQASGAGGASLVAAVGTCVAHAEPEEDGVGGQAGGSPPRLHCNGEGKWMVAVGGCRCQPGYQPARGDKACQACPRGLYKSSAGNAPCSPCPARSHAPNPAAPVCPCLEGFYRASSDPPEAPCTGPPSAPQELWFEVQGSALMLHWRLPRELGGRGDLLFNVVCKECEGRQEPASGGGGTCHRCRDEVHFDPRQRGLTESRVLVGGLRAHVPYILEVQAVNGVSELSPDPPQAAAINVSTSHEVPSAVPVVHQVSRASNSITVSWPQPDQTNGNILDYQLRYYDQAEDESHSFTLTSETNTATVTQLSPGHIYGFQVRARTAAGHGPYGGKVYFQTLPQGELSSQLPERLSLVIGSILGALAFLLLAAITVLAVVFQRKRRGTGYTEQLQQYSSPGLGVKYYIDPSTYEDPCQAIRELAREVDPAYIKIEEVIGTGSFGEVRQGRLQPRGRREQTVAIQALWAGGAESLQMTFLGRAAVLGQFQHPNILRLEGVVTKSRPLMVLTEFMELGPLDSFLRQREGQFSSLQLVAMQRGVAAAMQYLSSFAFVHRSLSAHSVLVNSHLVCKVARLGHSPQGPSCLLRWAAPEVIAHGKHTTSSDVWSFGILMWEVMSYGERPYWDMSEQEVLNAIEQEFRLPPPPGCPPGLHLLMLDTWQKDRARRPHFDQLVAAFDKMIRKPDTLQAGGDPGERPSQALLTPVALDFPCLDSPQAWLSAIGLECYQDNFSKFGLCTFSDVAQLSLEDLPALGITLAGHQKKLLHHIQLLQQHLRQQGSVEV
Method: (§1) Cannabis flavonoids and their analogs were subjected to kinase inhibition assay. The compounds were first screened at a single concentration of 10 μM in the primary assay. […]. To determine the kd or IC50 values, competition binding assays were established, authenticated and executed as described previously. Fabian et al., “A Small Molecule-Kinase Interaction Map For Clinical Kinase Inhibitors.”, Nat Biotechnol, 23(3):329-36, Epub (2005). See also, Karaman et al., “A Quantitative Analysis Of Kinase Inhibitor Selectivity”, Nat. Biotechnol. […] For most assays, kinases were fused to T7 phage strains (Fabian, supra) and for the other assays, kinases were produced in HEK-293 cells after which they were tagged with DNA for quantitative PCR detection. In general, full-length constructs were used for small, single domain kinases, and catalytic domain constructs for large multi-domain kinases. The binding assays utilized streptavidin-coated magnetic beads treated with biotinylated small molecule ligands for 30 minutes at room temperature which generated affinity resins for the kinase assays. The liganded beads were blocked with excess biotin and washed with blocking buffer (SeaBlock (Pierce), 1% BSA, 0.05% Tween 20, 1 mM DTT) to remove unbound ligand and to reduce non-specific phage binding. […] Test compounds were prepared as 40× stocks in 100% DMSO and diluted directly into the assay (Final DMSO concentration=2.5%). All reactions were performed in polypropylene 384-well plates in a final volume of 0.04 ml. […] The beads were then re-suspended in elution buffer (1×PBS, 0.05% Tween 20, 0.5 μM non-biotinylated affinity ligand) and incubated at room temperature with shaking for 30 minutes. The kinase concentration in the eluates was measured by quantitative PCR. An illustration of the kinase interaction process is presented below. Kd/IC50 values were determined using a standard dose response curve using the hill equation. Curves were fitted using a non-linear least square fit with the Levenberg-Marquardt algorithm.
(§2) The compound(s) were screened at 10 μM and results for primary screen binding interactions are reported as ‘% Ctrl’, where lower numbers indicate stronger hits in the matrix.

SIRT-2 = molecular target: T2, SIRT-2 (Homo sapiens, UniProt Q8IXJ6); test: Inhibition of sirtuins, SIRT-2; type: biochemical; settings: Table 3 SIRT
T2 sequence (Q8IXJ6 1-389): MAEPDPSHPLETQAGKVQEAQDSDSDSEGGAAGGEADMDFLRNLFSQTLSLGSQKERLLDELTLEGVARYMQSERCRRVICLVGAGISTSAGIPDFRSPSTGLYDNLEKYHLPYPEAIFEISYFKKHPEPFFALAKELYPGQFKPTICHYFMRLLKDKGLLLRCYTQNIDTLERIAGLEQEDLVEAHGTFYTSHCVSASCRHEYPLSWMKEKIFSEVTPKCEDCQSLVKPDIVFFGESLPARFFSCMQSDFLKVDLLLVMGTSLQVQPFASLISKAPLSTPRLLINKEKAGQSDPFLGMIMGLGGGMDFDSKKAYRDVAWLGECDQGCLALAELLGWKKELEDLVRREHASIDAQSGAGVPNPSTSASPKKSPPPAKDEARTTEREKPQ
Source text: Inhibition of Sirtuins, Matrix Metalloproteinase, Bromodomains was Also Confirmed Using Standard Protocols and the Results are Present in Table 2.

FLT4(VEGFR3) = molecular target: T3, FLT4(VEGFR3) (Homo sapiens, UniProt P35916); test: Kinase competition binding assay, FLT4(VEGFR3); settings: Table 1 kinase panel
T3 construct: made in house
Method: as §1, §2

DRAK2 = molecular target: T4, DRAK2 (Homo sapiens, UniProt O94768); test: Kinase competition binding assay, DRAK2; settings: Table 1 kinase panel
T4 construct: made in house
T4 sequence (O94768 1-372): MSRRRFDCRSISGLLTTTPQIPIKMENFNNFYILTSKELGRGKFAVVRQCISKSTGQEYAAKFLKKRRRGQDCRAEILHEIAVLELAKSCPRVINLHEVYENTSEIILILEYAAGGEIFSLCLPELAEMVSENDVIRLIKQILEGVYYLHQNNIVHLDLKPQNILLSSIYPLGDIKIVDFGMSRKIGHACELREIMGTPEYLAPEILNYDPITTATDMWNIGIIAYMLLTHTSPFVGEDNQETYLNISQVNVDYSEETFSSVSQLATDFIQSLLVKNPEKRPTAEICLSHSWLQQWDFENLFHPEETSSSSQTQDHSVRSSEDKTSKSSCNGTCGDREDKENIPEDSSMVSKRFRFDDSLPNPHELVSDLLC
Method: as §1, §2

MELK = molecular target: T5, MELK (Homo sapiens, UniProt Q14680); test: Kinase competition binding assay, MELK; settings: Table 1 kinase panel
T5 construct: made in house
Method: as §1, §2

PIM-1 = molecular target: T6, PIM-1 (Homo sapiens, UniProt P11309); test: Kinase competition binding assay, PIM-1; settings: Table 1 kinase panel
T6 construct: full-length constructs were used for small, single domain kinases; T7 phage fusion (most assays) or DNA tag for qPCR (HEK-293-made kinases); made in house
Method: as §1, §2

With COc1cc(-c2cc(=O)c3c(O)c(C/C=C(\C)CCC=C(C)C)c(O)cc3o2)ccc1O [FBL-03A] the IC50 (EPHB6) was over 20000 nM, the IC50 (SIRT-2) was 2.57 µM and the IC50 (FLT4(VEGFR3)) was 330 nM. For the same compound, the IC50 (DRAK2) was over 20000 nM, the IC50 (MELK) was over 20000 nM and the IC50 (PIM-1) was over 20000 nM.

In the case of COc1cc(-c2cc(=O)c3c(O)cc(O)c(CC=C(C)C)c3o2)ccc1O [FBL-03G], the IC50 (EPHB6) was over 1000 nM, the IC50 (SIRT-2) was 24.1 µM and the IC50 (FLT4(VEGFR3)) was 4220 nM. It also gave an IC50 (DRAK2) of over 10000 nM, an IC50 (MELK) of 105 nM and an IC50 (PIM-1) of 78 nM.

Compound COc1ccc(-c2cc(=O)c3c(O)c(C/C=C(\C)CCC=C(C)C)c(O)cc3o2)cc1OC [FBL-03D] has an IC50 (EPHB6) of over 30000 nM, an IC50 (SIRT-2) of 2.38 µM and an IC50 (FLT4(VEGFR3)) of over 30000 nM. For the same compound, the IC50 (DRAK2) was over 30000 nM, the IC50 (MELK) was over 30000 nM and the IC50 (PIM-1) was over 30000 nM.

Work on COc1cc(-c2cc(=O)c3c(O)c(CC=C(C)C)c(O)cc3o2)ccc1O [FBL-03B] yielded an IC50 (EPHB6) of over 1000 nM, an IC50 (SIRT-2) of 10.8 µM and an IC50 (FLT4(VEGFR3)) of 9.3 nM. It also gave an IC50 (DRAK2) of under 1000 nM and an IC50 (MELK) of 232 nM.

Compound COc1cc(-c2cc(=O)c3c(O)cc(O)c(C/C=C(\C)CCC=C(C)C)c3o2)ccc1O [FBL-03C] has an IC50 (EPHB6) of 270 nM, an IC50 (SIRT-2) of 14 µM and an IC50 (FLT4(VEGFR3)) of over 20000 nM. The IC50 (DRAK2) was 980 nM, the IC50 (MELK) was over 1000 nM and the IC50 (PIM-1) was over 1000 nM.
